A short description of assay [1]: Inhibition of Staphylococcus aureus type I signal peptidase SpsB-mediated processing of internally quenched fluorescent synthetic peptide substrate.
The target of assay [2] is Signal peptidase I (Escherichia coli K-12) (UniProt P00803). The assay can be described thus: (§1) Inhibition of Escherichia coli type I signal peptidase lepB.
The test system of assay [3] is Staphylococcus aureus. As to the kind of experiment: Inhibition of Staphylococcus aureus type I signal peptidase SpsB-mediated processing of internally quenched fluorescent synthetic peptide substrate at 200 uM.
The test system of assay [4] is Staphylococcus epidermidis. The assay can be described thus: Antimicrobial activity against Staphylococcus epidermidis by broth microdilution method. Format: functional. In general terms: In broth dilution the organism is exposed to a series of concentrations in liquid medium.
Assay [5] deals with Staphylococcus aureus. The assay can be described thus: Antimicrobial activity against Staphylococcus aureus by broth microdilution method. The class given is functional.
Another assay deals with Escherichia coli. The assay can be described thus: Antimicrobial activity against Escherichia coli by broth microdilution method. Format: functional.
Another assay concerns the target Signal peptidase I (Escherichia coli K-12, UniProt P00803). The assay is described as §1.

In brackets after ≈: the same amount, converted by molar mass. Activity calls are given as the source filed them. Residues, ends and D or L forms follow the SMILES beside them. *: point of attachment. Decanoyl = CCCCCCCCCC(=O)*

Chain of Signal peptidase I (Escherichia coli K-12) (P00803 whole entry): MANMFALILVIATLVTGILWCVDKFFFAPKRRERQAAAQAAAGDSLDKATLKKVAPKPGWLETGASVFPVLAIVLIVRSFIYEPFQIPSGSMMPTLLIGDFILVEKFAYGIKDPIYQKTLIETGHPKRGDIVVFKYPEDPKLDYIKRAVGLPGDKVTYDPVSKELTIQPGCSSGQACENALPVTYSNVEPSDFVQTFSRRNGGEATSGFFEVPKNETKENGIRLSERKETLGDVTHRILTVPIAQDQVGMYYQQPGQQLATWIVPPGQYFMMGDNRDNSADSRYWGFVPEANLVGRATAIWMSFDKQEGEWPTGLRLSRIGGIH
Chain of Signal peptidase I (P00803 whole entry): as above

As a reminder, the IC50 is the midpoint of a concentration-inhibition curve. Usually inhibition stands for the drop in the measured response relative to a control, in per cent. `CCCCCCCCCC(=O)N[C@@H](C)C(=O)N[C@@H](CCCCN)C(=O)N[C@@H](C)C(=O)N1CCC[C@H]1C(=O)N[C@@H](CO)C(=O)N[C@@H](CCCCN)C(=O)N[C@H](C(=O)N[C@@H](CC(=O)O)C(=O)N[C@@H](CC(=O)O)C(=O)O)[C@@H](C)CC` (Decanoyl-AKAPSKIDD-OH): the IC50 in assay [1] is > 200 µM. Further, the result in assay [2] was inactive. The inhibition in the assay on Staphylococcus aureus [3] worked out at 0%.
As for `CCCCCCCCCC(=O)N[C@@H](CC(C)C)C(=O)N[C@H](C(=O)N1CCC[C@H]1C(=O)N[C@H](C(=O)N[C@@H](C)C(=O)N[C@@H](CCCCN)C(=O)N[C@@H](C)C(=O)N1CCC[C@H]1C(=O)N[C@@H](CO)C(=O)O)[C@@H](C)O)[C@@H](C)O` (Decanoyl-LTPTAKAPS-OH), the IC50 in assay [1] worked out at 22.5 µM. In assay [2], the outcome was inactive. The inhibition in the assay on Staphylococcus aureus [3] was 92.9%.
In turn, `CCCCCCCCCC(=O)N[C@@H](CC(C)C)C(=O)N[C@H](C(=O)N1CCC[C@H]1C(=O)N[C@H](C(=O)N[C@@H](C)C(=O)N[C@@H](CCCCN)C(=O)N[C@@H](C)C(=O)N1CCC[C@H]1C(=O)N[C@@H](CO)C(=O)N[C@@H](CCCCN)C(=O)O)[C@@H](C)O)[C@@H](C)O` (Decanoyl-LTPTAKAPSK-OH) had an IC50 in assay [1] of 1 µM. Further, in assay [2], the outcome was inactive. Also, the inhibition with Staphylococcus aureus [3] came out at 108%.
On the same counts, the results for `CCCCCCCCCC(=O)N[C@@H](CC(C)C)C(=O)N[C@H](C(=O)N1CCC[C@H]1C(=O)N[C@H](C(=O)N[C@@H](C)C(=O)N[C@@H](CCCCN)C(=O)N[C@@H](C)C(=O)N1CCC[C@H]1C(=O)N[C@@H](CO)C(=O)N[C@@H](CCCCN)C(=O)N[C@H](C(=O)O)[C@@H](C)CC)[C@@H](C)O)[C@@H](C)O` (Decanoyl-LTPTAKAPSKI-OH) are 2.6 µM, “inactive” and 107%.
Compound `CCCCCCCCCC(=O)N[C@@H](CC(C)C)C(=O)N[C@H](C(=O)N1CCC[C@H]1C(=O)N[C@H](C(=O)N[C@@H](C)C(=O)N[C@@H](CCCCN)C(=O)N[C@@H](C)C(=O)N1CCC[C@H]1C(=O)N[C@@H](CO)C(=O)N[C@@H](CCCCN)C(=O)N[C@H](C(=O)N[C@@H](CC(=O)O)C(=O)O)[C@@H](C)CC)[C@@H](C)O)[C@@H](C)O` (Decanoyl-LTPTAKAPSKID-OH) returned an IC50 in assay [1] of 5 µM. In addition, the result in assay [2] was inactive. Besides, in the assay with Staphylococcus aureus [3], the inhibition came out at 108%.
For the compound `CCCCCCCCCC(=O)N[C@@H](CC(C)C)C(=O)N[C@H](C(=O)N1CCC[C@H]1C(=O)N[C@H](C(=O)N[C@@H](C)C(=O)N[C@@H](CCCCN)C(=O)N[C@@H](C)C(=O)N1CCC[C@H]1C(=O)N[C@@H](CO)C(=O)N[C@@H](CCCCN)C(=O)N[C@H](C(=O)N[C@@H](CC(=O)O)C(=O)N[C@@H](CC(=O)O)C(=O)O)[C@@H](C)CC)[C@@H](C)O)[C@@H](C)O` (Decanoyl-LTPTAKAPSKIDD-OH), the result (in assay [4]; with Staphylococcus aureus [5]; in assay [2]; in the assay on Escherichia coli) was inactive. In addition, the IC50 in assay [1] is 0.8 µM. Further, in the assay with Staphylococcus aureus [3], the inhibition was 107%.
Consider `CCCCCCCCCC(=O)N1CCC[C@H]1C(=O)N[C@H](C(=O)N[C@@H](C)C(=O)N[C@@H](CCCCN)C(=O)N[C@@H](C)C(=O)N1CCC[C@H]1C(=O)N[C@@H](CO)C(=O)N[C@@H](CCCCN)C(=O)N[C@H](C(=O)N[C@@H](CC(=O)O)C(=O)N[C@@H](CC(=O)O)C(=O)O)[C@@H](C)CC)[C@@H](C)O` (Decanoyl-PTAKAPSKIDD-OH), for which the IC50 in assay [1] was found to be 3.2 µM. Also, the outcome in assay [2] was inactive. Further, the inhibition in the assay with Staphylococcus aureus [3] came to 106%.
Usually MIC stands for the smallest concentration in the dilution series that meets the test's criterion for growth inhibition. Higher therefore signals weaker potency. Turning to `CCCCCCCCCC(=O)N1CCC[C@H]1C(=O)N[C@H](C(=O)N[C@@H](C)C(=O)N[C@@H](CC(N)=O)C(=O)N[C@@H](C)C=O)[C@@H](C)O` (Decanoyl-PTANA-aldehyde), the figures for the MIC (in assay [4]; against Staphylococcus aureus [5]; against Escherichia coli) were 500 µg/mL (≈ 819 µM), 125 µg/mL (≈ 205 µM) and > 500 µg/mL, respectively. Moreover, the IC50 in assay [1] was found to be 0.09 µM; at Signal peptidase I, 13.4 µM.
Turning to `CCCCCCCCCC(=O)N[C@H](C(=O)N[C@@H](C)C(=O)N[C@@H](CCCCN)C(=O)N[C@@H](C)C(=O)N1CCC[C@H]1C(=O)N[C@@H](CO)C(=O)N[C@@H](CCCCN)C(=O)N[C@H](C(=O)N[C@@H](CC(=O)O)C(=O)N[C@@H](CC(=O)O)C(=O)O)[C@@H](C)CC)[C@@H](C)O` (Decanoyl-TAKAPSKIDD-OH), the IC50 in assay [1] was 30.8 µM. In assay [2], the outcome was inactive. In the assay with Staphylococcus aureus [3], the inhibition worked out at 98%.
In assay [1], `CCCCCCCCCC(=O)N[C@H](C(=O)N1CCC[C@H]1C(=O)N[C@H](C(=O)N[C@@H](C)C(=O)N[C@@H](CCCCN)C(=O)N[C@@H](C)C(=O)N1CCC[C@H]1C(=O)N[C@@H](CO)C(=O)N[C@@H](CCCCN)C(=O)N[C@H](C(=O)N[C@@H](CC(=O)O)C(=O)N[C@@H](CC(=O)O)C(=O)O)[C@@H](C)CC)[C@@H](C)O)[C@@H](C)O` (Decanoyl-TPTAKAPSKIDD-OH) returned an IC50 of 4.8 µM. The outcome in assay [2] was inactive. For the same compound, the inhibition with Staphylococcus aureus [3] is 106%.
With `CC[C@H](C)[C@H](NC(=O)[C@H](CCCCN)NC(=O)[C@H](CO)NC(=O)[C@@H]1CCCN1C(=O)[C@H](C)NC(=O)[C@H](CCCCN)NC(=O)[C@H](C)NC(=O)[C@@H](NC(=O)[C@@H]1CCCN1C(=O)[C@@H](NC(=O)[C@@H](N)CC(C)C)[C@@H](C)O)[C@@H](C)O)C(=O)N[C@@H](CC(=O)O)C(=O)N[C@@H](CC(=O)O)C(=O)O` (H-LTPTAKAPSKIDD-OH), in assay [1], the IC50 was > 200 µM. In addition, the result in assay [2] was inactive. Also, in the assay on Staphylococcus aureus [3], the inhibition turned out to be 21.6%.

Source of the values: ChEMBL document CHEMBL1151864, “Substrate based peptide aldehyde inhibits bacterial type I signal peptidase” (Bioorg Med Chem Lett, 2009).
